Test results taken from US20180221546A1, “IMPLANTABLE ORTHOPEDIC DEVICES HAVING ANTIMICROBIAL COATINGS” (TELEFLEX MEDICAL INCORPORATED, priority 2015, published 2018).
Values after ≈ are worked out from the molar mass of the structure shown.

Experiments:
Assay type in all cases: cell-based
Staphylococcus aureus [1] = assay: Time to Kill; settings: 128 ppm; S. aureus challenge 10^4-10^5 CFU/mL
Method: (§1) Alexidine and Chlorhexidine, both at a concentration of 128 ppm were exposed to a Gram positive bacteria (Staphylococcus aureus), a Gram negative bacteria (Pseudomonas aeruginosa), and a fungus (Candida albicans). The challenge concentration for each organism was 10^4-10^5 CFU/mL, and the exposure time varied from 0.5-60 minutes. […] Complete kill of all three organisms was observed within 0.5 -1 minute of Alexidine exposure.

Candida albicans [2] = assay: Time to Kill; settings: 128 ppm; C. albicans challenge 10^4-10^5 CFU/mL
Method: as §1

Pseudomonas aeruginosa [3] = assay: Time to Kill; settings: 128 ppm; P. aeruginosa challenge 10^4-10^5 CFU/mL
Method: as §1

Proteus mirabilis = assay: MIC and MBC by broth dilution in 96-well plate
Method: (§2) From the stock solutions of the drugs Alexidine and Chlorhexidine, dilution series was prepared in the wells of a 96-well plate by performing 1:1 dilutions to cover a concentration range of 0-512 ppm. Ten microliters from each of the drug concentration was mixed with […] of culture broth containing approximately 10^5CFU/mL of bacteria or yeast species. The test plate was incubated for 18-24 hours after which absorbance of each well was read at 670 nm on a BioTek plate reader. […] The wells containing growth should have had higher absorbance reading when compared to the drug control wells. After reading the absorbance for the MIC, 10 μl of each test well was plated onto the surface of D/E agar in 6 or 12 well microtiter plates to determine the MBC. The plates were incubated inverted at 37° C. for 24-48 hours after which numbers of colonies were counted. The MBC value was the lowest concentration of the drug at which no growth was observed.

Acinetobacter baumannii = assay: MIC and MBC by broth dilution in 96-well plate
Method: as §2

Enterobacter cloacae = assay: MIC and MBC by broth dilution in 96-well plate
Method: as §2

Staphylococcus aureus [4] = assay: MIC and MBC by broth dilution in 96-well plate
Method: as §2

Candida albicans [5] = assay: MIC and MBC by broth dilution in 96-well plate
Method: as §2

Pseudomonas aeruginosa [6] = assay: MIC and MBC by broth dilution in 96-well plate
Method: as §2

Enterococcus faecalis = assay: MIC and MBC by broth dilution in 96-well plate
Method: as §2

MIC (Proteus mirabilis) [µg/mL] | MIC (Acinetobacter baumannii) [µg/mL] | MIC (Enterobacter cloacae) [µg/mL] | MIC (Staphylococcus aureus [4]) [µg/mL] | MIC (Candida albicans [5]) [µg/mL] | MIC (Pseudomonas aeruginosa [6]) [µg/mL] | MIC (Enterococcus faecalis) [µg/mL] | SMILES | Time to complete kill (Staphylococcus aureus [1]) [min] | Time to complete kill (Candida albicans [2]) [min] | Time to complete kill (Pseudomonas aeruginosa [3]) [min] | MBC (Proteus mirabilis) [µg/mL] | MBC (Acinetobacter baumannii) [µg/mL] | MBC (Enterobacter cloacae) [µg/mL] | MBC (Staphylococcus aureus [4]) [µg/mL] | MBC (Candida albicans [5]) [µg/mL] | MBC (Pseudomonas aeruginosa [6]) [µg/mL] | MBC (Enterococcus faecalis) [µg/mL]
1 (≈ 1.97 µM) | 0.5 (≈ 0.983 µM) | 2 (≈ 3.93 µM) | 0.5 (≈ 0.983 µM) | 1 (≈ 1.97 µM) | 8 (≈ 15.7 µM) | 0.5 (≈ 0.983 µM) | CCCCC(CC)CNC(=N)NC(=N)NCCCCCCNC(=N)NC(=N)NCC(CC)CCCC (stereo not shown) [Alexidine] | 0.5 to 1 | 0.5 to 1 | 0.5 to 1 | 2 (≈ 3.93 µM) | 1 (≈ 1.97 µM) | 2 (≈ 3.93 µM) | 1 (≈ 1.97 µM) | 1 (≈ 1.97 µM) | 128 (≈ 252 µM) | 2 (≈ 3.93 µM)
8 (≈ 15.8 µM) | 16 (≈ 31.7 µM) | 2 (≈ 3.96 µM) | 0.5 (≈ 0.989 µM) | 2 (≈ 3.96 µM) | 8 (≈ 15.8 µM) | 2 (≈ 3.96 µM) | [H]/N=C(\N/C(=N/[H])NCCCCCCNC(=N)NC(=N)Nc1ccc(Cl)cc1)Nc1ccc(Cl)cc1 [Chlorhexidine] | 60 | 60 | 5 | 8 (≈ 15.8 µM) | 32 (≈ 63.3 µM) | 32 (≈ 63.3 µM) | 16 (≈ 31.7 µM) | 4 (≈ 7.91 µM) | 64 (≈ 127 µM) | 64 (≈ 127 µM)
